Among the data in ChEMBL document CHEMBL4811315, “Design, synthesis and biochemical evaluation of novel carbonic anhydrase inhibitors triggered by structural knowledge on hCA VII” (Bioorg Med Chem, 2021) are Ki values, retold here.

SMILES strings stand for the structures.

Broadly, the Ki is the equilibrium dissociation constant of an inhibitor or competing ligand from its target. A higher Ki goes with lower affinity.

In this assay the target is Carbonic anhydrase 9 (Homo sapiens, UniProt Q16790).
Description: Inhibition of full length human CA9 incubated for 15 mins by phenol red dye based stopped flow CO2 hydration assay
Regarding `Cc1ccoc1C(=O)N1CCN(C(=O)c2ccc(S(N)(=O)=O)cc2)CC1`, affinity was put at a Ki of 3050 nM. This counts as single-digit micromolar.

With `Cc1ccsc1C(=O)N1CCN(C(=O)c2ccc(S(N)(=O)=O)cc2)CC1`, affinity was put at a Ki of 2920 nM.

On to `NS(=O)(=O)c1ccc(C(=O)N2CCN(C(=O)c3sccc3Br)CC2)cc1`, for which the affinity, expressed as Ki, was 125 nM.

`NS(=O)(=O)c1ccc(C(=O)N2CCN(C(=O)c3ccc(Cl)s3)CC2)cc1` came in with a Ki of 382 nM.

Turning to `NS(=O)(=O)c1ccc(C(=O)N2CCN(C(=O)c3ccc4ccccc4c3)CC2)cc1`, the Ki was found to be 2990 nM.

Consider `NS(=O)(=O)c1ccc(C(=O)N2CCN(C(=O)c3cccs3)CC2)cc1`, for which the Ki came out at 3280 nM. This Ki and that of the molecule before are within 1.5-fold of each other.

Turning to `NS(=O)(=O)c1ccc(C(=O)N2CCN(C(=O)c3cc4ccccc4[nH]3)CC2)cc1`, the affinity corresponds to a Ki of 9.2 nM.

Take `NS(=O)(=O)c1ccc(C(=O)N2CCN(C(=O)c3ccco3)CC2)cc1`: the Ki was 3170 nM.

For the molecule `NS(=O)(=O)c1ccc(C(=O)N2CCN(C(=O)c3ccc([N+](=O)[O-])s3)CC2)cc1`, the Ki is 171 nM. This Ki lies about 19-fold lower than the previous one.

`NS(=O)(=O)c1ccc(C(=O)N2CCN(C(=O)c3ccc([N+](=O)[O-])o3)CC2)cc1` returned an inhibition constant (Ki) of 976 nM. Compared with the last molecule, the Ki is about 5.7-fold higher.

As to `NS(=O)(=O)c1ccc(C(=O)N2CCN(C(=O)c3ccc[nH]3)CC2)cc1`, the Ki turned out to be 277 nM.

The molecule `NS(=O)(=O)c1ccc(C(=O)N2CCN(C(=O)c3cc4ccccc4o3)CC2)cc1` displayed a Ki of 2940 nM.

In turn, `NS(=O)(=O)c1ccc(C(=O)N2CCN(C(=O)c3cc4ccccc4s3)CC2)cc1` displayed an inhibition constant (Ki) of 97.9 nM. Compared with the last molecule, the Ki is about 30-fold lower.
